Laboratory results: patent US20120035224A1, “Betulin derived compounds as anti-feedants for plant pests” (priority 2006, published 2012)
Marks after values point to notes of the source that are not given here.

Columns and labels:
Type in all cases: in vivo
[1] = test system: cabbage white, Mamestra brassicae larvae; test: Antifeedant activity on cabbage leaf discs, no-choice test; settings: for Leaf mass eaten by the larvae vs. control, Time/0 h: 100 μg/cm^2, 0 h after treatment; for Leaf mass eaten by the larvae vs. control, Time/21 h: 100 μg/cm^2, 21 h after treatment; for Leaf mass eaten by the larvae vs. control, Time/43 h: 100 μg/cm^2, 43 h after treatment; for Leaf mass eaten by the larvae vs. control, Time/73 h: 100 μg/cm^2, 73 h after treatment; for antifeedant activity on the larvae: FIG. 2, no-choice test
Protocol: Antifeedant activity for the […], Mamestra brassicae larvae was tested with six compounds derived from betulin. Discs cut from cabbage leaves, having a diameter of 5 cm, were placed on petridishes and treated with the test agents in an amount of 100 μg/cm^2. One small larva was introduced on each plate. Each agent was tested in 10 parallel studies. Cabbage leaf mass remaining on the dish was weighed after 0, 21, 43 and 73 hours after treatment (hat), and leaf mass eaten by the larva was calculated as percentage based on the control.

[2] = test system: Deroceras agreste (field snails) and Deroceras reticulatum (false field snails); test: Effect on feeding behaviour of snails, half-treated leaf discs; settings: for ranking of snail test results: 100 μg/cm^2; for Percentage of the leaf half treated with the test substance vs. total mass eaten: treated half of leaf disc; for Percentage of the leaf half treated with the test substance vs. total mass eaten / Percentage of the control vs. total mass eaten: 36 hours, 100 μg/cm^2 in acetone; for Percentage of the control vs. total mass eaten: untreated half of leaf disc
Protocol: Deroceras agreste (field snails) and Deroceras reticulatum (false field snails) snails with lengts of about 2 cm, collected from nature, were used in this antifeedant test. Cabbage and lettuce leaves cut into discs with diameters of 4 cm serving as feed plants were placed on petridishes. Half on each leaf disc was treated with the test substance, the other haft serving as the control. One snail was placed on each plate, and only tests where the snail ate the leaf were assayed. The results were recorded at 36 hours after test initiation. Acetone was used as control, while betulin, betulinic acid, betulonic acid and betulin 28-carboxymethoxy mentholester dissolved in aceton served as test substances. The leaves studied were treated with test substances used in amounts of 100 μg/cm^2, The results from this test are presented in the following table 5.

[3] = test system: cabbage white, Mamestra brassicae larvae; test: Antifeedant activity on cabbage leaf discs, no-choice test; settings: FIG. 3, small larvae (12 to 19 mg), weight after 7 hours vs initial weight
[4] = test system: strawberry beetles (Galerucella tenella); test: Palatability and egg laying selection test on strawberry leaves
Protocol: Antifeedant activity of betulin and betulonic acid was tested for strawberry beetles (Galerucella tenella) with adults and larvae using leaves of the plants. The test substances were dissolved in ethanol, and the leaves were treated to achieve a concentration of approx. 100 μg/cm^2 of the test substance. The experiment was carried out as a selection test on a petridisc containing a strawberry leaf having one half treated with the test substance and the other half treated with ethanol only. Two adult strawberry beetles (Galerucella tenella) were placed on the disc (male and female) or two larvae. The number of cavities eaten by the animals were counted daily during four days; simultaneously the number eggs laid by the adults were counted. Both the adults and the larvae had 10 tests. Results from the palatability test and the prevention of egg laying test with strawberry beetles (Galerucella tenella) are shown in the following table 6.

[5] = test system: lily beetles (Lilioceris lilii) adults; test: Palatability and egg laying selection test with adults on brown lily leaves; settings: for Percentage of the eaten relative mass of the leaf: selection test, approx. 100 μg/cm^2, four days, ethanol control 76.4
Protocol: (§1) Antifeedant activity of betulin and betulonic acid was tested for lily beetles (Lilioceris lilii) with adults and larvae using leaves of brownlily plants. The test substances were dissolved in ethanol, and the leaves were treated to achieve a concentration of approx. 100 μg/cm^2 of the test substance. The experiment was carried out with adults as a selection test on a petridisc containing two leaves cut from a brown lily plant. One was treated with the test substance and the other treated with ethanol only. Two adult lilybeetles (Lilioceris lilii) were placed on the disc (male and female). The leaf mass eaten by the animals was counted daily during four days by weighing the leaves; simultaneously the number eggs laid by the adults were counted. 10 parallel tests were performed. The test with larvae was a no-choise-test, where either a treated or untreated leaf of brownlily and one beetle larvae was placed on each disc. 7 parallel tests were performed. Results from the palatability test and the prevention of egglaying test with adults and larvae of lily beetles (Lilioceris lilii) are shown in the following table 7. […] Betulonic acid decreased very efficiently egglaying of adults on the leaves (more than 90%). Betulonic acid decreased feeding of larvae efficiently (92%), with betulin this was not observed. In a no-choise situation the larvae died on the betulonic acid treated leaves, in other test treatments they grew normally.

[6] = test system: lily beetles (Lilioceris lilii) larvae; test: No-choice feeding test with larvae on brown lily leaves; settings: for decrease of feeding of larvae / Percentage of the eaten relative mass of the leaf: larvae; for Percentage of the eaten relative mass of the leaf: no-choice test, approx. 100 μg/cm^2, ethanol control 65.3
Protocol: as §1

[7] = test system: rapeseed beetles of the genus Phyllotreta spp.; test: Antifeedant activity for rapeseed beetles on rapeseed seedlings (palatability test); settings: for % Surface area of the leaves eaten: 100 μg/cm^2 in rapeseed oil on rapeseed seedlings, after one week, rapeseed oil=100%; for prevention of beetle feeding: 100 μg/cm^2, FIG. 1 and table 3
Protocol: Antifeedant activity for rapeseed beetles of the genus Phyllotreta spp. was tested using betulin 3,28-O-isostearylic diester (prepared as described in example 10), 3,28-diacetoxy betulin (prepared in example 15a), and betulin. Test compounds dissolved in 2 ml of rapeseed oil were sprayed on rapeseed seedlings at the cotyledon stage in an amount of 100 μg/cm^2. The plants thus treated were placed in an insect cage, followed by the introduction of the beetles after 24 hours. In the tests, 20 beetles were used per cage, each cage comprising 3 petridishes with seedlings, one control dish and two different test dishes, the number of the cages (=parallel tests) being 5. Pure rapeseed oil was used as the control. The beetles were allowed free access to all plants, and after one week, the test was stopped, the plants were examined, and feeding damages caused by the beetles were evaluated.
Number of the damaged leaves and the degree of damage were evaluated (% leaf surface area fed, palatability assessment).
Betulin 20,29-epoxy-3β,28-diacetate was used as the control compound, prepared as disclosed in J. Arg. Food Chem. 1995, 43, 2513-2516.

[8] = adults, approx. 100 μg/cm^2, four days, ethanol = 100
[9] = larvae, approx. 100 μg/cm^2, four days, ethanol = 100

| Compound | Leaf mass eaten by the larvae vs. control, Time/0 h [1] [%] | Leaf mass eaten by the larvae vs. control, Time/21 h [1] | Leaf mass eaten by the larvae vs. control, Time/43 h [1] | Leaf mass eaten by the larvae vs. control, Time/73 h [1] [%] | ranking of snail test results [2] | Percentage of the leaf half treated with the test substance vs. total mass eaten [2] [%] | Percentage of the control vs. total mass eaten [2] [%] | % Surface area of the leaves eaten [7] [%] | also measured |
| --- | --- | --- | --- | --- | --- | --- | --- | --- | --- |
| 3,28-C18 alkylene succinic diester of betulin | 100 | 93% | 90% | 77 |  |  |  |  |  |
| C=C(C)[C@@H]1CC[C@]2(C(=O)O)CC[C@]3(C)C(CCC4[C@@]5(C)CC[C@H](O)C(C)(C)C5CC[C@]43C)C12 (stereo partly drawn) [Betulinic acid, betulinic acid] | 100 | 46% | 67% | 80 | Best results | 37.6 | 62.4 |  | antifeedant activity on the larvae [1]: clearly had antifeedant activities; weight development of the larvae [3]: lower than the initial weight |
| C=C(C)[C@@H]1CC[C@]2(C(=O)O)CC[C@]3(C)C(CCC4[C@@]5(C)CCC(=O)C(C)(C)C5CC[C@]43C)C12 (stereo partly drawn) [Betulonic acid, betulonic acid] | 100 | 94% | 95% | 86 | Best results | 25.8 | 74.2 |  | prevention of feeding ([4]; adults): approx. 41%; prevention of laying of eggs on the leaves ([4]; adults): more than 90%; Percentage of the number or eggs laid by the females on the leaves [4, 8]: 8.3%; Percentage of the relative number of eaten cavities [4, 8]: 58.7%; prevention of feeding ([4]; larvae): 82%; Percentage of the relative number of eaten cavities [4, 9]: 17.8%; decrease of egglaying of adults on the leaves [5]: more than 90%; prevention (decrease) of feeding [5]: approx. 78%; Percentage of the number or eggs laid by the beetles ([5]; approx. 100 μg/cm^2, ethanol control = 100): 8.7%; Percentage of the eaten relative mass of the leaf [5]: 17.0%; decrease of feeding of larvae [6]: 92%; Percentage of the eaten relative mass of the leaf [6]: 5.2%; fate of larvae on treated leaves ([6]; no-choice situation): died |
| CC(=O)OCC12CCC(C3(C)CO3)C1C1CCC3C4(C)CCC(OC(C)=O)C(C)(C)C4CCC3(C)C1(C)CC2 (stereo not drawn) [Betulin 20,29-epoxy-3β,28-diacetate, reference compound] |  |  |  |  |  |  |  | 50 |  |
| C=C(C)[C@@H]1CC[C@]2(COC(=O)CO[C@H]3C[C@@H](C)CC[C@@H]3C(C)C)CC[C@]3(C)C(CCC4[C@@]5(C)CC[C@H](O)C(C)(C)C5CC[C@]43C)C12 (stereo partly drawn) [betulin 28-carboxymethoxy menthol ester, 28-carboxymethoxy mentholester of betulin] | 100 | 126* % | 146* % | 94 | Best results | 36.6 | 63.4 |  |  |
| C=C(C)[C@@H]1CC[C@]2(CO)CC[C@]3(C)[C@H](CC[C@@H]4[C@@]5(C)CC[C@H](O)C(C)(C)[C@@H]5CC[C@]43C)[C@@H]12 [Betulin, lup-20(29)-ene-3β,28-diol] | 100 | 101* % | 193* % | 88 |  | 22.5 | 77.5 | 58 | prevention of beetle feeding [7]: efficiently prevented beetle feeding; prevention of feeding ([4]; larvae): 78%; Percentage of the relative number of eaten cavities [4, 9]: 21.9%; prevention (decrease) of feeding [5]: approx. 47%; Percentage of the eaten relative mass of the leaf [5]: 40.7%; decrease of feeding of larvae [6]: not observed; Percentage of the eaten relative mass of the leaf [6]: 64.2% |
| 28-C18 alkylene succinic ester of betulin | 100 | 103* % | 82% | 71 |  |  |  |  | antifeedant activity on the larvae [1]: clearly had antifeedant activities |
| 3,28-O-isostearylic acid diester of betulin [Betulin 3,28-O-isostearylic acid diester] |  |  |  |  |  |  |  | 64 | prevention of beetle feeding [7]: efficiently prevented beetle feeding |
| C=C(C)[C@@H]1CC[C@]2(COC(C)=O)CC[C@]3(C)C(CCC4[C@@]5(C)CC[C@H](OC(C)=O)C(C)(C)C5CC[C@]43C)C12 (stereo partly drawn) [3,28-diacetoxy betulin] |  |  |  |  |  |  |  | 96 |  |
